One series concerns the target p70S6K (h) (Homo sapiens, UniProt P23443). Description: Determination of p70S6 inhibitory activity (radiometric kinase assay). Type of series: biochemical. The conditions noted are these: read-out: (a) p70S6K1 IC50. How it is done: The ability of compounds of the invention to inhibit P70S6 kinase was determined using the protocol below.
20 mM MOPS, 1 mM EDTA, 0.01% Brij-35, 5% Glycerol, 0.1% b-mercaptoethanol, 1 mg/mL BSA
In a final reaction volume of 25 μL, p70S6K (h) (5-10 mU) is incubated with 8 mM MOPS pH 7.0, 0.2 mM EDTA, 100 μM KKRNRTLTV, 10 mM Mg acetate and [γ-33P-ATP] (specific activity approx. 500 cpm/pmol, concentration as required). The reaction is initiated by the addition of the MgATP mix. After incubation for 40 minutes at room temperature, the reaction is stopped by the addition of 5 μL of a 3% phosphoric acid solution. 10 μL of the reaction mixture is then spotted onto a P30 filtermat and washed three times for 5 minutes in 75 mM phosphoric acid and once in methanol prior to drying and scintillation counting.

The subject of series [1] is phosphorylation of S6 Ser235/236 in MCF-7 cells. The experiment in a line: MCF-7 pS6 ELISA (phosphorylation of S6 Ser235/236). The settings on record: Homo sapiens, MCF7; for IC50: S6 Ser235/236, 1% FBS, 2 h, read-out: (b) MCF-7 pS6 ELISA IC50. The format is cell-based. Here is the method: The following assay provides IC50 values for inhibition of P70S6K activity in a whole cell assay by determining effects on the phosphorylation of S6^Ser235/236 in MCF-7 cells by ELISA.
The following protocol was used: • 1) MCF-7 cells were seeded in 96-well plates at a density of 7000 cells per well and allowed to adhere for 6 h in media containing 10% FBS. • 2) The full serum media was replaced and cells incubated overnight in media containing 1% FBS, prior to addition of test compounds. • 3) Test compounds were prepared from 10 mM DMSO stocks to give final concentration ranges as indicated on graphs. DMSO was constant at a final concentration of 1%. • 4) Test compounds were incubated with cells in duplicate for 2 h at 37° C/5% CO2 in a humidified atmosphere. • 5) The media was removed and cells were lysed by freeze-thawing in cell lysis buffer. • 6) Detection of phosphorylated S6Ser235/236 was then carried out using a PathScan ELISA kit (Cell Signaling Technology #7205). • 7) Lysates were diluted 1:1 with sample diluent before being applied to wells coated with an antibody against phosphorylated-S6 protein. • 8) The ELISA was then performed as stated in the manufacturers' instructions. • 9) The raw data were normalised to control values and analysed using a 4-parameter logistic equation in GraphPad Prism.
A general note: ELISA stands for enzyme-linked immunosorbent assay.

The next series has as its system MCF-7 cells. Description: MCF-7 proliferation assay (Alamar blue, 72 h). The format is cell-based. The settings on record: Homo sapiens, MCF7, 72 h; read-out: (c) MCF-7 proliferation IC50. How it is done:
The following assay was used to determine the ability of test compounds to inhibit cell growth.
The following protocol was used: • 1) MCF-7 cells were seeded in 96-well plates at 5000 cells per well and allowed to adhere overnight prior to addition of compound or vehicle control. • 2) Test compounds were prepared from 10 mM DMSO stocks to give a final concentration range of 100 μM, 30 μM, 10 μM, 3 μM, 1 μM, 0.3 μM, 0.1 μM, 0.03 μM, 0.01 μM and vehicle control. The DMSO content was constant at 1%. • 3) Test compounds were incubated with the cells for 72 h at 37° C. 5% CO2 in a humidified atmosphere. • 4) Alamar blue 10% (v/v) was then added and incubated for a further 6 h, and fluorescent product detected using the BMG FLUOstar plate reader. • 5) Data were analysed using a 4-parameter logistic equation in GraphPad Prism.

Series [2] in a line: Brain and plasma concentrations in an in vivo cassette mouse model. Details: species or system male CD-1 mice. The settings on record: male, PO cassette, 2.5 mg/kg per compound; for Kp at 3 h: read-out: (d) Brain: Plasma ratio at 3 hours. How it is done:
The compounds of this invention were evaluated in an in vivo cassette mouse model to determine brain and plasma concentrations following oral dosing. This is an industry-standard and recognised means to assess brain penetration of small molecules (for recent literature article, refer to In vitro permeability analysis, pharmacokinetic and brain distribution study in mice of imperatorin, isoimperatorin and cnidilin in Radix Angelicae Dahuricae, Fitoterapia, Volume 85, March 2013 , Pages 144-153). It is also recognised that higher brain concentrations (and higher ratios of brain: plasma concentration) lead to greater exposure in the brain—this is clearly advantageous if the brain is the site of action.
For a single cassette study, male CD-1 mice were used (n=3 per timepoint, two timepoints: 1.0 hr and 3.0 hr).
5 compounds were dosed PO per cassette (dose level 2.5 mg/kg per compound, dose conc. 0.25 mg/ml, dose volume 10.0 ml/kg).
Formulation used to solubilize compounds: 10% DMSO/90% hydroxypropyl-β-cyclodextrin (20% w/v aqueous)
Sampling was terminal and plasma and brain matrices were generated. To prepare plasma samples, protein was precipitated using acetonitrile. To prepare brain samples, homogenisation and protein precipitation was performed with acetonitrile. Samples were analysed using HPLC-TOF MS using electrospray ionisation.

In series [3] the test system is phosphorylation of S6 at Serine residues 240 and 244 in MCF7 cells. The experiment in a line: MCF7 pS6 ELISA variant (pS240/244, 0% FBS). Type of series: cell-based. The settings on record: Homo sapiens, S6 Serine 240 and 244 detected, read-out: (b) MCF-7 pS6 ELISA IC50 (pS240/244 variant).
[4] abbreviates: CD-1, brain, read-out: (d) Brain conc. at 3 hours.
[5] abbreviates: CD-1, plasma, read-out: (d) Plasma conc. at 3 hours.

Results on 18 compounds are retold here after patent publication US10144726B2, “Modulators of the p70S6 kinase for use in the treatment of brain disorders and triple-negative breast cancer” (SENTINEL ONCOLOGY LIMITED, priority 2015, dated 2018).

Counter-ions that a name gives are not always drawn. Like-named read-outs stand apart in the source and are kept apart here.

Chain of p70S6K (h) (P23443 whole entry): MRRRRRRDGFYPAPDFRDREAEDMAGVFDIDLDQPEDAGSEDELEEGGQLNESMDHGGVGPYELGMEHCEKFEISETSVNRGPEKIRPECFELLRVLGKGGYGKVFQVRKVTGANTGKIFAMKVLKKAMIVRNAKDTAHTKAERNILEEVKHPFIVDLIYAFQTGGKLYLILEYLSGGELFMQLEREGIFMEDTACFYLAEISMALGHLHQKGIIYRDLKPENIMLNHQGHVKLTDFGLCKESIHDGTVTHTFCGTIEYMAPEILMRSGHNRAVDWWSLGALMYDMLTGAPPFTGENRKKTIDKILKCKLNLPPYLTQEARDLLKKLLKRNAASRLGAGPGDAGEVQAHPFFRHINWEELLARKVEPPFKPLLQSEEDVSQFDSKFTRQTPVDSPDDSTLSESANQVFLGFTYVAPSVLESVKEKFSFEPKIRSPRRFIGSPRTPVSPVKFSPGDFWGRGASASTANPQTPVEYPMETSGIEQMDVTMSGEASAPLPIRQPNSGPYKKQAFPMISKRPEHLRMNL

Take `CN(Cc1ccccc1)c1cnc2cc(-c3cn[nH]c3)ccc2n1` [Example 1]: the IC50 on p70S6K (h) stood at 4 nM; in series [1], 3000 nM; in the series with MCF-7 cells, 12200 nM. Further, the concentration at 3 h is 3650 nM in series [2] (setting [4]) and 970 nM in series [2] (setting [5]). For the same compound, in series [2] (CD-1, brain), the Kp at 3 h amounted to 3.8.
On to `Clc1cccc(CNc2cnc3cc(-c4cn[nH]c4)ccc3n2)c1` [Example 2], for which the values for the IC50 (at p70S6K (h); in series [1]; in the series with MCF-7 cells) were 25 nM, 400 nM and 15000 nM, respectively. For the same compound, the concentration at 3 h stood at 1500 nM in series [2] (setting [4]) and 1230 nM in series [2] (setting [5]). Moreover, in series [2] (CD-1, brain), the Kp at 3 h is 1.2.
For `Fc1ccc(CNc2cnc3cc(-c4cn[nH]c4)ccc3n2)cc1` [Example 3], the IC50 at p70S6K (h) was found to be 26 nM; in series [1] it was 3200 nM; in the series with MCF-7 cells it was 5300 nM. Moreover, the concentration at 3 h was found to be 590 nM in series [2] (setting [4]) and 520 nM in series [2] (setting [5]). Also, the Kp at 3 h in series [2] (CD-1, brain) was 1.1.
With `COc1cccc(CNc2cnc3cc(-c4cn[nH]c4)ccc3n2)c1` [Example 4], the IC50 was 30 nM on p70S6K (h), 400 nM in series [1] and 2300 nM in the series with MCF-7 cells. The concentration at 3 h in series [2] (setting [4]) stood at 1080 nM; in series [2] (setting [5]), 1730 nM. Also, the Kp at 3 h in series [2] (CD-1, brain) was 0.6.
For the compound `CN(Cc1ccc(F)cc1)c1cnc2cc(-c3cn[nH]c3)ccc2n1` [Example 5], the IC50 came to 12 nM on p70S6K (h), 3200 nM in series [1] and 33000 nM in the series on MCF-7 cells. For the same compound, the concentration at 3 h in series [2] (setting [4]) is 2480 nM; in series [2] (setting [5]) it was 760 nM. Also, in series [2] (CD-1, brain), the Kp at 3 h turned out to be 3.3.
For `CCN(Cc1ccccc1)c1cnc2cc(-c3cn[nH]c3)ccc2n1` [Example 6], the IC50 at p70S6K (h) was 33 nM; with MCF-7 cells, 28000 nM. The values for the concentration at 3 h in series [2] (setting [4]) and in series [2] (setting [5]) were 2380 nM and 550 nM, respectively. In addition, the Kp at 3 h in series [2] (CD-1, brain) was determined as 4.3.
In the case of `CN(Cc1cccc(F)c1)c1cnc2cc(-c3cn[nH]c3)ccc2n1` [Example 7], the IC50 on p70S6K (h) is 9 nM; in series [1], 900 nM; with MCF-7 cells, 7000 nM. In addition, the concentration at 3 h in series [2] (setting [4]) stood at 2880 nM; in series [2] (setting [5]) it was 830 nM. The Kp at 3 h in series [2] (CD-1, brain) is 3.5.
On to `Fc1ccc(CNc2cnc3cc(-c4cn[nH]c4)ccc3n2)cc1F` [Example 8], for which the values for the IC50 (on p70S6K (h); in series [1]; in the series with MCF-7 cells) were 26 nM, 1400 nM and 24000 nM, respectively. Moreover, the concentration at 3 h in series [2] (setting [4]) stood at 820 nM; in series [2] (setting [5]) it was 760 nM. The Kp at 3 h in series [2] (CD-1, brain) was 1.1.
On to `C[C@@H](Nc1cnc2cc(-c3cn[nH]c3)ccc2n1)c1ccccc1` [Example 9], for which the IC50 on p70S6K (h) was determined as 3 nM; in series [1], 300 nM; in the series with MCF-7 cells it was 15000 nM. In addition, the concentration at 3 h in series [2] (setting [4]) stood at 2070 nM; in series [2] (setting [5]), 1510 nM. The Kp at 3 h in series [2] (CD-1, brain) was found to be 1.4.
For the compound `CN(Cc1ccccc1)c1nc2ccc(-c3cn[nH]c3)cc2[n+]([O-])n1` [Example 10], on p70S6K (h), the IC50 was determined as 62 nM. The concentration at 3 h in series [2] (setting [4]) was determined as 750 nM; in series [2] (setting [5]) it was 180 nM. Besides, the Kp at 3 h in series [2] (CD-1, brain) turned out to be 4.2.
Taken in the same sequence, the figures for `CN(Cc1ccccc1)c1nnc2cc(-c3cn[nH]c3)ccc2n1` [Example 11] were 64 nM, 2620 nM, 350 nM and 7.5.
On to `COc1cccc([C@@H](C)Nc2cnc3cc(-c4cn[nH]c4)ccc3n2)c1` [Example 12], for which the IC50 on p70S6K (h) came out at 7 nM; in series [1] it was 800 nM; with MCF-7 cells it was 8400 nM. Besides, the concentration at 3 h in series [2] (setting [4]) was determined as 2400 nM; in series [2] (setting [5]), 5050 nM. Moreover, the Kp at 3 h in series [2] (CD-1, brain) was found to be 0.5.
On to `C[C@H](c1ccccc1)N(C)c1cnc2cc(-c3cn[nH]c3)ccc2n1` [Example 13], for which the IC50 at p70S6K (h) came out at 5 nM; in series [1], 1200 nM. The concentration at 3 h in series [2] (setting [4]) came to 2960 nM; in series [2] (setting [5]), 700 nM. Also, the Kp at 3 h in series [2] (CD-1, brain) was 4.2.
Consider `COc1cccc([C@@H](C)N(C)c2cnc3cc(-c4cn[nH]c4)ccc3n2)c1` [Example 14], for which the IC50 was found to be 9 nM at p70S6K (h), 900 nM in series [1] and 9000 nM in the series with MCF-7 cells. The concentration at 3 h in series [2] (setting [4]) turned out to be 2650 nM; in series [2] (setting [5]), 790 nM. Further, the Kp at 3 h in series [2] (CD-1, brain) came to 3.3.
Broadly, the inhibition is the change of the read-out against control, counted positive when it falls. With `Cc1cccc([C@@H](C)Nc2cnc3cc(-c4cn[nH]c4)ccc3n2)c1` [Example 16], the IC50 on p70S6K (h) amounted to 18 nM; with MCF-7 cells, 4200 nM. For the same compound, the inhibition at 0.3 µM in series [1] (at 0.3 uM, read-out: (b) MCF-7 pS6 ELISA inhibition) is 57%. The concentration at 3 h turned out to be 3250 nM in series [2] (setting [4]) and 3340 nM in series [2] (setting [5]). For the same compound, the Kp at 3 h in series [2] (CD-1, brain) stood at 1.
Regarding `[O-][n+]1nc(NCc2ccccc2)nc2ccc(-c3cn[nH]c3)cc21` [Example 17], the IC50 at p70S6K (h) came out at 32 nM. Besides, the concentration at 3 h in series [2] (setting [4]) came to 210 nM; in series [2] (setting [5]), 160 nM. Moreover, in series [2] (CD-1, brain), the Kp at 3 h is 1.3.
On to `C[C@@H](Nc1nc2ccc(-c3cn[nH]c3)cc2[n+]([O-])n1)c1ccccc1` [Example 18, 1-oxido-N-[(1R)-1-phenylethyl]-7-(1H-pyrazol-4-yl)-1,2,4-benzotriazin-1-ium-3-amine hydrochloride], for which the IC50 in series [3] turned out to be 5040 nM; on p70S6K (h) it was 12 nM. Besides, the concentration at 3 h in series [2] (setting [4]) is 990 nM; in series [2] (setting [5]) it was 560 nM. The Kp at 3 h in series [2] (CD-1, brain) worked out at 1.8.
For `C[C@@H](Nc1nnc2cc(-c3cn[nH]c3)ccc2n1)c1ccccc1` [Example 19, N-[(1 R)-1-phenylethyl]-7-(1H-pyrazol-4-yl)-1,2,4-benzotriazin-3-amine hydrochloride], the IC50 in series [3] was 4590 nM; on p70S6K (h), 22 nM. For the same compound, the figures for the concentration at 3 h in series [2] (setting [4]) and in series [2] (setting [5]) were 2330 nM and 810 nM, respectively. Moreover, in series [2] (CD-1, brain), the Kp at 3 h stood at 2.9.
